Results taken from the supplement of paper PMC4862054.

Legend:
[1] = test system: MDA-MB-468; conditions: 72 h
In short: (§1)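 For viability, cells received 2.5 µl CellTiter-Blue for 2 h at 37 °C and fluorescence was read at 560/590 nm. Before this, breast cancer cell lines in 20 µl suspension had been incubated for 72 h on 384-well plates pre-loaded with compound dissolved in 5 µl medium. EC50 was obtained from a percent-inhibition dose-response fit censored at the highest concentration, after normalisation of each plate to vehicle and a positive kill control; rows with a zero drug sensitivity score were discarded.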

[2] = test system: MDA-MB-436; conditions: 72 h
In short: as §1

[3] = test system: BT-549; conditions: 72 h
In short: as §1

[4] = test system: HCC1143; conditions: 72 h
In short: as §1

[5] = test system: SK-BR-3; conditions: 72 h
In short: as §1

[6] = test system: BT-474; conditions: 72 h
In short: as §1

[7] = test system: Hs578T; conditions: 72 h
In short: as §1

[8] = test system: MFM-223; conditions: 72 h
In short: as §1

[9] = test system: DU-4475; conditions: 72 h
In short: as §1

[10] = test system: CAL-51; conditions: 72 h
In short: as §1

[11] = test system: CAL-85-1; conditions: 72 h
In short: as §1

[12] = test system: HDQ-P1; conditions: 72 h
In short: as §1

[13] = test system: CAL-148; assay: normalised viability (% of control), CellTiter-Blue; higher = more viable cells (about 100 = DMSO control); conditions: incubation time: 72 h
In short: (§2)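 Vehicle (100) and a positive kill control (0) anchored the normalisation of each plate, and Z'-factor was used for quality control. Breast cancer cell lines in 20 µl suspension were incubated 72 h over compound in 5 µl medium in 384-well plates, followed by CellTiter-Blue at 560/590 nm. The value is normalised viability at a single listed concentration of the series.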

[14] = test system: CAL-51; assay: as above; conditions: incubation time: 72 h
In short: as §2

[15] = test system: CAL-85-1; assay: as above; conditions: incubation time: 72 h
In short: as §2

[16] = test system: HDQ-P1; assay: as above; conditions: incubation time: 72 h
In short: as §2

[17] = test system: HCC1599; conditions: 72 h
In short: as §1

[18] = test system: CAL-148; conditions: 72 h
In short: (§3)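 The plates used were 384-well plates holding compound at 5 concentrations in 10-fold steps across a compound-specific 10,000-fold range, into which breast cancer cell lines were seeded in 20 µl suspension. Following 72 h incubation, CellTox Green fluorescence was read at 485/520 nm, and CellTiter-Glo luminescence was read after 10 min at room temperature. Normalisation on each plate used 0.1 % DMSO and a positive kill control. Dose-response curves gave the EC50, which was censored at the top concentration.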

[19] = test system: CAL-120; conditions: 72 h
In short: as §3

[20] = test system: MCF-10A; conditions: 72 h
In short: as §3

[21] = test system: MDA-MB-436; conditions: 72 h; remark: listed apart in the source
In short: as §3

[22] = test system: SK-BR-3; conditions: 72 h; remark: listed apart in the source
In short: as §3

[23] = test system: CAL-85-1; conditions: 72 h; remark: listed apart in the source
In short: as §3

[24] = test system: HDQ-P1; conditions: 72 h; remark: listed apart in the source
In short: as §3

[25] = test system: CAL-51; conditions: 72 h; remark: listed apart in the source
Procedure: (§4)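 Drug sensitivity and resistance testing (DSRT) of breast cancer cell lines in 384-well plates, 5 concentrations in 10-fold dilutions over a compound-specific 10,000-fold range. After 72 h, cytotoxicity was read by CellTox Green fluorescence and viability by CellTiter-Glo luminescence (multiplexed), normalised to DMSO and benzethonium chloride controls. EC50 is the inflection point of the fitted dose-response curve (bottom asymptote free, so it can be relative for partial curves) and is censored at the highest tested concentration. Rows with DSS 0 (no meaningful response) were excluded.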

[26] = test system: CAL-85-1; conditions: 72 h; remark: listed apart in the source
Procedure: as §4

[27] = test system: Hs578T; conditions: 72 h; remark: listed apart in the source
In short: as §3

Row | Structure (SMILES) | EC50, CellTiter-Blue viability [1] | EC50, CellTiter-Blue viability [5] | EC50, CellTiter-Blue viability [11] | normalised viability [13] | normalised viability [14] | normalised viability [15] | normalised viability [16] | further results
1 | Cc1ccc(C(=O)N(CCCN)[C@@H](c2oc3cc(Cl)ccc3c(=O)c2Cc2ccccc2)C(C)C)cc1 | 1.88 nM | 0.00074 µM | 4.95 nM | – | – | – | – | EC50, CellTiter-Blue viability [2]: 2.55 nM; EC50, CellTiter-Blue viability [3]: 1.83 nM; EC50, CellTiter-Blue viability [4]: 2.09 nM; EC50, CellTiter-Blue viability [6]: 4.38 nM; EC50, CellTiter-Blue viability [7]: 4.05 nM; EC50, CellTiter-Blue viability [8]: 3.75 nM; EC50, CellTiter-Blue viability [9]: 8.62 nM; EC50, CellTiter-Blue viability [10]: 6.53 nM; EC50, CellTiter-Blue viability [12]: 2.34 nM
2 | C#Cc1cccc(Nc2ncnc3cc(OCCOC)c(OCCOC)cc23)c1 [Erlotinib] (10000 nM) | – | – | – | 24.7% | 50.9% | 47.7% | 68% | –
3 | N[C@@H](CSC(c1ccccc1)(c1ccccc1)c1ccccc1)C(=O)O [S-trityl-L-cysteine] (40000 nM) | – | – | – | 114% | 87% | 87.5% | 65% | –
4 | Cc1ccc(C(=O)Nc2ccc(CN3CCN(C)CC3)c(C(F)(F)F)c2)cc1C#Cc1cnc2cccnn12 [Ponatinib] (1000 nM) | – | – | – | 77.5% | 42% | 50.1% | 21.9% | –
5 | Cc1ccc(-n2nc(C(C)(C)C)cc2NC(=O)Nc2ccc(OCCN3CCOCC3)c3ccccc23)cc1 [Doramapimod] (10000 nM) | – | – | – | 111% | 86.8% | 72.6% | 81% | –
6 | C#Cc1cccc(Nc2ncnc3cc(OCCOC)c(OCCOC)cc23)c1 [Erlotinib] | 1510 nM | 4.99 µM | 754 nM | – | – | – | – | EC50, CellTiter-Blue viability [2]: 840 nM; EC50, CellTiter-Blue viability [6]: 1750 nM; EC50, CellTiter-Blue viability [17]: 103 nM; EC50, CellTiter-Blue viability [12]: 90.2 nM; EC50, CellTiter-Glo [18]: 881 nM; EC50, CellTiter-Glo [19]: 9.09 µM; EC50, CellTiter-Glo [20]: 96 nM; EC50, CellTiter-Glo [21]: 7.11 µM; EC50, CellTiter-Glo [22]: 3.44 µM; EC50, CellTiter-Glo [23]: 761 nM; EC50, CellTiter-Glo [24]: 28.7 nM; EC50, CellTox Green [25]: 3.16 µM; EC50, CellTox Green [26]: 1590 nM
7 | CN(C)/N=N/c1[nH]cnc1C(N)=O [Dacarbazine] (10000 nM) | – | – | – | 96.2% | 91.2% | 87.5% | 104% | –
8 | CCN(CCCOc1ccc2c(Nc3cc(CC(=O)Nc4cccc(F)c4)[nH]n3)ncnc2c1)CCOP(=O)(O)O [Barasertib] | 44.5 nM | – | 9.39 nM | – | – | – | – | EC50, CellTiter-Blue viability [3]: 23.1 nM; EC50, CellTiter-Blue viability [7]: 12.5 nM; EC50, CellTiter-Blue viability [9]: 375 nM; EC50, CellTiter-Blue viability [10]: 37.9 nM
9 | O=C(O)c1ccc(-c2c[nH]c3ncc(-c4ccccc4)cc23)cc1C1CCCC1 | – | – | – | – | – | – | – | EC50, CellTiter-Glo [22]: > 10 µM; EC50, CellTiter-Glo [27]: > 10 µM
10 | Cn1c(CCCC(=O)O)nc2cc(N(CCCl)CCCl)ccc21 [Bendamustine] | – | > 10 µM | – | – | – | – | – | –
